33 compounds from PubChem BioAssay (NCI) can be followed below.

Common to all, as to assay: DTP human tumour cell line panel, 48 h
The subject of experiment [1] is SF-268 CNS.
For experiment [2], the system named is SR leukemia.
Experiment [3] deals with UACC-62 melanoma.
The subject of experiment [4] is SK-OV-3 ovarian.
Experiment [5] relates to SW-620 colon.
The subject of experiment [6] is SK-MEL-28 melanoma.
The test system of experiment [7] is IGROV1 ovarian.
In experiment [8] the test system is SF-295 CNS.
Experiment [9] deals with HS 578T breast.

SMILES strings stand for the structures.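 Where inhibition never reached the appropriate level, the endpoint shown equals the highest concentration tested. Otherwise, values were interpolated linearly from a five-concentration, 48-hour dose response in 96-well plates. Here, GI50 denotes the concentration required for 50% inhibition of growth. TGI marks complete inhibition of growth.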

As to `COc1ccc(CCc2cc(OC)c(O)c(OC)c2)cc1`, the concentration for total growth inhibition (TGI) in experiment [1] is > 100 µM; in [2] it was > 100 µM; in experiment [3], > 100 µM; in [4], > 100 µM; in experiment [5], > 100 µM; in experiment [6] it was 58.8 µM. In addition, the TGI in experiment [7] was > 100 µM.
Turning to `C[Si](C)(C)C(Sc1ccccc1)(Sc1ccccc1)Sc1ccccc1`, the TGI in experiment [8], in [1], in experiment [2], in [3], in experiment [4] and in experiment [5] was > 100 µM throughout. For the same compound, the TGI in [6] was > 100 µM.
For the compound `CCOC(=O)c1cccnc1C(OC(C)=O)OC(C)=O`, the TGI in experiment [8], in experiment [1], in experiment [2], in experiment [3], in experiment [4] and in experiment [5] was > 100 µM each time. For the same compound, the TGI in experiment [6] and in experiment [7] was > 100 µM each time.
In the case of `COC(=O)C(=O)C(C(=O)C(=O)Nc1cc(C)ccc1C)c1nc2ccc(C(=O)c3ccccc3)cc2[nH]c1=O` (configuration not stated), the TGI in experiment [8], in experiment [1], in experiment [2], in experiment [3], in experiment [5] and in experiment [7] was > 100 µM in each case.
As to `O=C1C2C3C=CC(C2C(=O)N1CN1CCSCC1)C1C2C(=O)N(CN4CCSCC4)C(=O)C2C31` (configuration not stated), the TGI in experiment [8] is > 100 µM; in [1] it was > 91.6 µM; in experiment [2] it was > 100 µM; in experiment [3], > 100 µM; in experiment [4] it was > 100 µM; in experiment [5], > 68.1 µM. The TGI in experiment [6] and in experiment [7] was > 100 µM throughout. The GI50 in experiment [5] is 50.5 µM.
For the compound `O=c1cc(-c2ccccc2)[nH]c2cc(Cl)ccc12`, the TGI was 2.07 µM in experiment [8]; > 100 µM in experiment [1]; 11.9 µM in experiment [3]; 3.95 µM in experiment [4]; 16.9 µM in experiment [5]; > 100 µM in experiment [6]. Moreover, the TGI in experiment [7] was > 100 µM.
In the case of `COC(=O)/C(=N\NC(N)=O)C(C(=O)C=C(C)C)C(=O)C(=O)Nc1ccc(Cl)c(Cl)c1` (configuration not stated), the TGI in experiment [8], in experiment [1], in [2], in experiment [3], in experiment [4] and in experiment [5] was > 100 µM each time. The TGI in [6] and in experiment [7] was > 100 µM in each case.
Turning to `Cc1ccc2nc(NC(=O)/C(=N\NC(=S)NN)C3C(=O)NC(=S)NC3=O)sc2c1`, the TGI in [8], in experiment [1], in [2], in experiment [3], in [4] and in experiment [5] was > 100 µM each time. For the same compound, the TGI in experiment [6] and in experiment [7] was > 100 µM each time.
In the case of `CCOC(=O)C(C(O)c1ccc([N+](=O)[O-])cc1)P(=O)(OCC)OCC` (configuration not stated), the TGI in [8], in experiment [1], in experiment [3], in experiment [5], in experiment [6] and in [7] was > 100 µM each time.
Turning to `C=C(CCCO)[C@@H]1CC[C@@](C)(O)[C@H]1C`, the TGI in [8], in experiment [2], in [3], in experiment [4], in experiment [5] and in experiment [6] was > 100 µM throughout. Also, the TGI in experiment [7] is > 100 µM.
As to `CCOC(=O)C(=O)Nc1ccccc1C(C)C`, the TGI in experiment [8], in experiment [1], in experiment [2], in [3], in experiment [4] and in [5] was > 100 µM throughout. Besides, the TGI in experiment [6] and in [7] was > 100 µM each time.
Regarding `COc1ccc2nc(NC(=O)C(=O)NNC(=O)c3ccncc3)sc2c1`, the TGI in experiment [8], in [1], in experiment [3], in [4], in experiment [5] and in [6] was > 100 µM in each case. Besides, the TGI in experiment [7] is > 100 µM.
As to `C/C(=N\NC(=O)CC(=O)N(C(=O)c1ccc(Cl)cc1)c1ccc(C)cc1)c1ccccc1O`, the TGI in [8], in experiment [1], in [3], in experiment [4], in experiment [5] and in experiment [6] was > 100 µM each time. Besides, the TGI in experiment [7] is > 100 µM.
With `CCN(CC)CCNc1ccc2nc(C)n3c4ccc(O)cc4c(=O)c1c23`, the TGI in experiment [8] came out at 9.81 µM; in [1], 12 µM; in [2] it was 1.32 µM; in [4], 12.6 µM; in [5], 1.98 µM; in [6], 11.3 µM. Also, in experiment [7], the TGI came to 15.5 µM.
For the compound `O=C1NC(c2cccc(OCc3ccccc3)c2)Nc2ccccc21` (configuration not stated), the TGI is 4.12 µM in experiment [8]; > 51 µM in experiment [1]; 0.47 µM in experiment [2]; 9.83 µM in experiment [9]; > 27.1 µM in experiment [3]; 5.87 µM in experiment [4]. In addition, the results for the TGI in experiment [5], in [6] and in [7] were > 100 µM, > 85.7 µM and 93.7 µM, respectively.
For the compound `Cc1ccccc1C1CC(c2ccccc2)=NO1` (configuration not stated), the TGI in experiment [8], in experiment [1], in [2], in [3], in experiment [4] and in experiment [5] was > 100 µM throughout. Besides, the TGI in [6] and in experiment [7] was > 100 µM throughout.
Consider `c1ccc(N/N=C2\NN=C(c3ccccc3)CS2)cc1`, for which the TGI is 48.6 µM in experiment [8]; 19.8 µM in experiment [1]; > 100 µM in experiment [2]; 21.5 µM in [3]; 39.9 µM in experiment [4]; 29.9 µM in experiment [5]. Moreover, the values for the TGI in experiment [6] and in experiment [7] were 36.6 µM and 32.3 µM, respectively.
For `C1C[OH+]CC[OH+]CCNCC[OH+]CC[OH+]CCN1.Cl.[Cl-].[Pt+4]`, the GI50 in experiment [8], in [1], in experiment [3], in [4], in [5] and in experiment [6] was > 100 µM throughout. Further, the GI50 in experiment [7] was > 100 µM. Further, the TGI in experiment [8], in experiment [1], in experiment [3], in [4], in [5] and in [6] was > 100 µM each time. For the same compound, the concentration for total growth inhibition (TGI) in experiment [7] is > 100 µM.
Turning to `CCOC1CC2OC(=O)C1C=C2C(=O)OC` (configuration not stated), the TGI in experiment [8] is > 100 µM; in [1] it was > 100 µM; in experiment [3] it was > 100 µM; in experiment [4] it was > 100 µM; in [5] it was 61.1 µM; in [6], 62.8 µM. Also, the TGI in [7] is > 100 µM.
As to `CCN(CC)CCn1c2ccccc2c(=O)c2c(OC)ccc(OC)c21`, the TGI in experiment [8], in experiment [1], in experiment [2] and in experiment [5] was > 100 µM in each case.
In the case of `CCOP1(=O)C=C(C)C(=C(Cl)Cl)C(C)=C1` (configuration not stated), the TGI in [8] was 39.8 µM; in experiment [1], > 100 µM; in experiment [3], 23.6 µM; in [4], > 100 µM; in [5] it was 30.7 µM; in experiment [6] it was > 100 µM. In addition, the TGI in experiment [7] was 90.9 µM. Further, the GI50 in experiment [1] was 15.8 µM; in experiment [3], 9.31 µM.
As to `CCOCc1cc(=O)c2c(OC)cc3c(c2o1)CCC(C)(C)O3`, the TGI in [8], in experiment [2], in [3], in experiment [4], in experiment [5] and in experiment [6] was > 100 µM in each case. In addition, in [7], the TGI is > 100 µM.
As for `CC(C)C1N2CCCCC2[C@@H]2c3[nH]c4ccccc4c3CCN12` (some centres not stated), the TGI in [8], in experiment [1], in experiment [3], in [4], in experiment [5] and in experiment [6] was > 100 µM throughout. Moreover, the TGI in experiment [7] is > 100 µM.
Take `CCN=C(C#N)NCC`: the TGI in experiment [8] was > 100 µM; in experiment [1], > 100 µM; in experiment [2], > 100 µM; in experiment [3], > 100 µM; in [4], > 100 µM; in experiment [5], 37.5 µM. Further, the TGI in [6] and in experiment [7] was > 100 µM each time.
Consider `c1ccc2c(NCCCCCCNc3cccc4ccccc34)cccc2c1`, for which the TGI in experiment [8], in [1], in [3], in [4], in [5] and in experiment [6] was > 100 µM each time. Also, in [7], the total growth inhibition concentration (TGI) was > 100 µM.
Consider `Cc1ccc(NC(=O)OCC(COc2ccc(Cl)cc2Cl)OC(=O)Nc2ccc(C)cc2)cc1` (configuration not stated), for which the TGI in experiment [8], in experiment [1], in experiment [3], in [4], in [5] and in [6] was > 100 µM each time. The TGI in experiment [7] was > 100 µM.
`Cc1cc(Cl)ccc1NC(=O)C(=O)C(C(=O)c1ccccc1)C1OC(=O)c2ccccc21` (configuration not stated): the TGI in [8], in [1], in experiment [2], in experiment [3], in experiment [4] and in experiment [5] was > 100 µM in each case. Besides, the TGI in experiment [6] and in [7] was > 100 µM in each case.
For `Cn1cnc([N+](=O)[O-])c1Sc1nccc(=O)[nH]1`, the TGI in experiment [8], in experiment [1], in experiment [2], in experiment [3], in [4] and in experiment [5] was > 100 µM in each case. The TGI in experiment [6] and in experiment [7] was > 100 µM each time.
With `CC1C2CC=CC(=O)[C@@]2(C)CCC12OCCO2` (some centres not stated), the TGI in [8], in experiment [1], in experiment [2], in [3], in experiment [4] and in experiment [5] was > 100 µM throughout. Besides, the TGI in [6] and in [7] was > 100 µM each time.
In the case of `COc1cc(/C=C2/C(=O)N(C(=O)OCc3ccccc3)C(Cc3cc(OC)c(OC)c(C)c3OC)C(=O)N2Cc2ccccc2)c(OC)c(C)c1OC` (configuration not stated), the TGI in [8], in experiment [1], in [2], in experiment [3], in experiment [4] and in experiment [5] was > 100 µM in each case. For the same compound, the TGI in experiment [6] and in [7] was > 100 µM in each case.
Take `CCCCN(CCCC)CCCn1cnc2ncccc2c1=O`: the total growth inhibition concentration (TGI) in experiment [8], in experiment [1], in experiment [2], in experiment [3], in experiment [4] and in experiment [5] was > 100 µM throughout. The TGI in experiment [6] and in experiment [7] was > 100 µM throughout.
In the case of `CC1CC[P+](c2ccccc2)(c2ccccc2)CC1`, the TGI in [8], in experiment [2], in experiment [3], in experiment [4], in [5] and in experiment [6] was > 100 µM in each case. The TGI in [7] is > 100 µM.
Turning to `COC[C@H](C)N=CN1CCc2ccccc2C1(Cc1ccccc1)Cc1ccccc1`, the TGI in experiment [8] was 28.3 µM; in experiment [1], 45.9 µM; in experiment [2], 42 µM; in experiment [3] it was > 100 µM; in [4], 30.6 µM; in [5], 63.1 µM. The values for the TGI in experiment [6] and in experiment [7] were 23.6 µM and > 100 µM, respectively.
